Measured values reported in PubChem BioAssay AID248 (DTP/NCI, 2004).
Values joined by “and” are separate entries in the source; they are usually repeats but may differ in a detail not shown here. Equal values may be shown once. Inconclusive results and toxic doses are left out. Rule as the data show it: active = T/C of 150% or more; inactive = T/C below 125%.

Tested on: L1210 leukemia ip in BDF1 mice, survival T/C
Experiment: NCI In Vivo Anticancer Drug Screen. Data for tumor model L1210 Leukemia (intraperitoneal) in B6D2F1 (BDF1) mice
Conditions: endpoint: mean survival time, higher = longer survival
How it was run: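 Value reflects the ratio of survival in compound-treated mice to survival in vehicle-treated controls, with both groups carrying the same transplanted tumor.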

[1] = dose: 100.0 mg/kg/injection, schedule: Q04DX002 (ip), vehicle: Klucel (hydroxypropylcellulose) (HPC)
[2] = dose: 200.0 mg/kg/injection, schedule: Q04DX002 (ip), vehicle: Klucel (hydroxypropylcellulose) (HPC)
[3] = dose: 400.0 mg/kg/injection, schedule: Q04DX002 (ip), vehicle: Klucel (hydroxypropylcellulose) (HPC)
[4] = dose: 100.0 mg/kg/injection, schedule: Q04DX003 (ip), vehicle: Klucel (hydroxypropylcellulose) (HPC)
[5] = dose: 200.0 mg/kg/injection, schedule: Q04DX003 (ip), vehicle: Klucel (hydroxypropylcellulose) (HPC)
[6] = dose: 400.0 mg/kg/injection, schedule: Q04DX003 (ip), vehicle: Klucel (hydroxypropylcellulose) (HPC)
[7] = dose: 25.0 mg/kg/injection, schedule: Q01DX009 (ip), vehicle: saline with Tween-80
[8] = dose: 25.0 mg/kg/injection, schedule: Q04DX003 (ip), vehicle: saline with Tween-80
[9] = dose: 100.0 mg/kg/injection, schedule: Q04DX003 (ip), vehicle: saline with Tween-80
[10] = dose: 200.0 mg/kg/injection, schedule: Q04DX003 (ip), vehicle: saline with Tween-80
[11] = dose: 400.0 mg/kg/injection, schedule: Q04DX003 (ip), vehicle: saline with Tween-80

Measured: T/C

O=C(Oc1c(-c2ccccc2)[nH]c2ccccc12)c1ccc([N+](=O)[O-])cc1
inactive: [1] 104 % of control | [2] 101 % of control | [3] 90 % of control

O=C(NCCC[P+](c1ccccc1)(c1ccccc1)c1ccccc1)OCc1ccccc1
inactive: dose: 12.5 mg/kg/injection, schedule: Q01DX009 (ip), vehicle: carboxymethylcellulose (CMC) 101 % of control and 120 % of control | dose: 12.5 mg/kg/injection, schedule: Q04DX002 (ip), vehicle: carboxymethylcellulose (CMC) 103 % of control | dose: 25.0 mg/kg/injection, schedule: Q01DX001 (ip), vehicle: carboxymethylcellulose (CMC) 87 % of control and 91 % of control | dose: 25.0 mg/kg/injection, schedule: Q01DX009 (ip), vehicle: carboxymethylcellulose (CMC) 103 % of control | dose: 25.0 mg/kg/injection, schedule: Q04DX002 (ip), vehicle: carboxymethylcellulose (CMC) 100 % of control and 91 % of control | dose: 25.0 mg/kg/injection, schedule: Q04DX003 (ip), vehicle: carboxymethylcellulose (CMC) 97 % of control and 98 % of control | dose: 50.0 mg/kg/injection, schedule: Q01DX001 (ip), vehicle: carboxymethylcellulose (CMC) 95 % of control and 104 % of control | dose: 50.0 mg/kg/injection, schedule: Q04DX002 (ip), vehicle: carboxymethylcellulose (CMC) 100 % of control | dose: 50.0 mg/kg/injection, schedule: Q04DX003 (ip), vehicle: carboxymethylcellulose (CMC) 97 % of control and 100 % of control

Cc1ccccc1CC1(Br)CC(C)(C)c2ccccc2C1=O (configuration not stated)
inactive: [4] 93 % of control | [5] 106 % of control | [6] 88 % of control

CCNCCCCNCC
inactive: [7] 95 % of control | [8] 98 % of control | dose: 50.0 mg/kg/injection, schedule: Q01DX009 (ip), vehicle: saline with Tween-80 101 % of control | dose: 50.0 mg/kg/injection, schedule: Q04DX003 (ip), vehicle: saline with Tween-80 91 % of control | [9] 94 % of control and 87 % of control

C=CCCCCCCCCC(=O)Nc1ccc(Cl)cc1C(=O)c1ccccc1
inactive: [1] 95 % of control | [2] 92 % of control | [3] 89 % of control

CSc1ccccc1N.[Cl][Cu][Cl]
inactive: dose: 5.0 mg/kg/injection, schedule: Q01DX001 (ip), vehicle: saline 103 % of control | dose: 10.0 mg/kg/injection, schedule: Q01DX001 (ip), vehicle: saline 115 % of control

CCCCCCCCCCCCNC1=C(Cl)C(=O)C(=O)c2cccnc21
inactive: [9] 98 % of control | [10] 101 % of control | [11] 95 % of control

CCCCCCCCCCCCCCCCCCN1CCSCC1
inactive: dose: 100.0 mg/kg/injection, schedule: Q01DX009 (ip), vehicle: saline with Tween-80 96 % of control and 108 % of control | dose: 100.0 mg/kg/injection, schedule: Q04DX002 (ip), vehicle: saline with Tween-80 93 % of control and 103 % of control | [9] 104 % of control | dose: 200.0 mg/kg/injection, schedule: Q01DX009 (ip), vehicle: saline with Tween-80 100 % of control and 103 % of control | dose: 200.0 mg/kg/injection, schedule: Q04DX002 (ip), vehicle: saline with Tween-80 94 % of control and 91 % of control | [10] 104 % of control | dose: 400.0 mg/kg/injection, schedule: Q01DX009 (ip), vehicle: saline with Tween-80 103 % of control and 110 % of control | dose: 400.0 mg/kg/injection, schedule: Q04DX002 (ip), vehicle: saline with Tween-80 98 % of control | [11] 106 % of control

S=c1nc[nH]c2c1ncn2C1CCCCC1
inactive: dose: 47.0 mg/kg/injection, schedule: Q01DX Z (ip), vehicle: carboxymethylcellulose (CMC) 98 % of control | dose: 94.0 mg/kg/injection, schedule: Q01DX Z (ip), vehicle: carboxymethylcellulose (CMC) 98 % of control | dose: 94.0 mg/kg/injection, schedule: Q01DX Z (oral), vehicle: carboxymethylcellulose (CMC) 108 % of control | dose: 188.0 mg/kg/injection, schedule: Q01DX Z (ip), vehicle: carboxymethylcellulose (CMC) 106 % of control | dose: 188.0 mg/kg/injection, schedule: Q01DX Z (oral), vehicle: carboxymethylcellulose (CMC) 98 % of control | dose: 376.0 mg/kg/injection, schedule: Q01DX Z (ip), vehicle: carboxymethylcellulose (CMC) 102 % of control | dose: 376.0 mg/kg/injection, schedule: Q01DX Z (oral), vehicle: carboxymethylcellulose (CMC) 110 % of control | dose: 752.0 mg/kg/injection, schedule: Q01DX Z (oral), vehicle: carboxymethylcellulose (CMC) 106 % of control

NCCCNC/C=C/CNCCCN
inactive: dose: 75.0 mg/kg/injection, schedule: Q04DX003 (ip), vehicle: saline 105 % of control | dose: 150.0 mg/kg/injection, schedule: Q04DX003 (ip), vehicle: saline 102 % of control | dose: 300.0 mg/kg/injection, schedule: Q04DX003 (ip), vehicle: saline 104 % of control

CC1CCCC1Sc1ccccc1 (configuration not stated)
inactive: dose: 100.0 mg/kg/injection, schedule: Q01DX001 (ip), vehicle: saline 91 % of control | dose: 100.0 mg/kg/injection, schedule: Q01DX009 (ip), vehicle: acetone 99 % of control | dose: 200.0 mg/kg/injection, schedule: Q01DX001 (ip), vehicle: saline 91 % of control | dose: 200.0 mg/kg/injection, schedule: Q01DX009 (ip), vehicle: acetone 106 % of control | dose: 400.0 mg/kg/injection, schedule: Q01DX001 (ip), vehicle: saline 93 % of control | dose: 400.0 mg/kg/injection, schedule: Q01DX009 (ip), vehicle: acetone 92 % of control

Cc1c2oc3c(C)ccc(C(=O)NCCN4CCCCC4)c3nc-2c(C(=O)NCCN2CCCCC2)c(N)c1=O
inactive: dose: 100.0 mg/kg/injection, schedule: Q04DX002 (ip), vehicle: saline 103 % of control | dose: 200.0 mg/kg/injection, schedule: Q04DX002 (ip), vehicle: saline 109 % of control

CC1(O)CCC2C3CCC4CC(=O)CCC4(C)C3(F)C(O)CC21C (configuration not stated)
inactive: dose: 100.0 mg/kg/injection, schedule: Q01DX009 (ip), vehicle: saline 96 % of control | dose: 200.0 mg/kg/injection, schedule: Q01DX009 (ip), vehicle: saline 102 % of control | dose: 400.0 mg/kg/injection, schedule: Q01DX009 (ip), vehicle: saline 96 % of control

O=C1C2(Cl)C3(Cl)C4(Cl)C(Cl)(Cl)C5(Cl)[C@]3(Cl)C1(Cl)[C@]5(Cl)C24Cl (some centres not stated)
inactive: dose: 75.0 mg/kg/injection, schedule: Q01DX001 (ip), vehicle: carboxymethylcellulose (CMC) 102 % of control | dose: 150.0 mg/kg/injection, schedule: Q01DX001 (ip), vehicle: carboxymethylcellulose (CMC) 96 % of control

C=CCNC(=O)Oc1cccc(NC(=O)OCC=C)c1
inactive: [9] 96 % of control | [10] 96 % of control | [11] 102 % of control

CC(=O)Nc1c(Cl)c(Cl)c2c(c1Cl)Cc1cc(F)ccc1-2
inactive: dose: 62.5 mg/kg/injection, schedule: Q01DX Z (ip), vehicle: saline 97 % of control | [9] 101 % of control | dose: 125.0 mg/kg/injection, schedule: Q01DX Z (ip), vehicle: saline 95 % of control | [10] 93 % of control | dose: 250.0 mg/kg/injection, schedule: Q01DX Z (ip), vehicle: saline 101 % of control | [11] 95 % of control | dose: 500.0 mg/kg/injection, schedule: Q01DX Z (ip), vehicle: saline 95 % of control | dose: 650.0 mg/kg/injection, schedule: Q01DX Z (ip), vehicle: saline 96 % of control | dose: 800.0 mg/kg/injection, schedule: Q01DX Z (ip), vehicle: saline 102 % of control

CC(=O)c1cc(I)c(O)c2ncccc12
inactive: dose: 6.25 mg/kg/injection, schedule: Q01DX009 (ip), vehicle: saline with Tween-80 91 % of control | dose: 6.25 mg/kg/injection, schedule: Q04DX003 (ip), vehicle: saline with Tween-80 95 % of control | dose: 12.5 mg/kg/injection, schedule: Q01DX009 (ip), vehicle: saline with Tween-80 91 % of control | dose: 12.5 mg/kg/injection, schedule: Q04DX003 (ip), vehicle: saline with Tween-80 106 % of control | [7] 89 % of control | [8] 116 % of control and 91 % of control | [9] 107 % of control

CC(C)(SCCc1ccncc1)C(N)C(=O)O (configuration not stated)
inactive: [4] 97 % of control | [5] 92 % of control | [6] 94 % of control

CCCCCCCCCCCC(CCCC)CCCC
inactive: dose: 100.0 mg/kg/injection, schedule: Q01DX001 (ip), vehicle: saline with Tween-80 93 % of control | dose: 200.0 mg/kg/injection, schedule: Q01DX001 (ip), vehicle: saline with Tween-80 104 % of control | dose: 400.0 mg/kg/injection, schedule: Q01DX001 (ip), vehicle: saline with Tween-80 101 % of control

CC1CCC2(OC1)OC1C(O)C3C4CCC5CC(OC6OC(CO)C(OC7OC(CO)C(O)C(OC8OCC(O)C(O)C8O)C7OC7OC(CO)C(O)C(OC8OC(CO)C(O)C(O)C8O)C7O)C(O)C6O)C(O)CC5(C)C4CCC3(C)C1C2C (configuration not stated)
inactive: dose: 25.0 mg/kg/injection, schedule: Q01DX001 (ip), vehicle: saline with Tween-80 93 % of control
